Molecules are shown by their SMILES.

This note sets out measurements from patent US9205073B2, “Method for treating virus infection using derivative of aniline” (CHINA MEDICAL UNIVERSITY, priority 2014, dated 2015).

Data set [1] deals with JEV T1P1. The data set can be described thus: Viral plaque test, JEV T1P1 replication in BHK-21 cells. The data set is classed as cell-based, Japanese encephalitis virus. To be noted: treated for 48 or 72 hours. The method, then: (§1) BHK-21 cells and/or TE671cells were separately cultured in a 24-well culture plate, with an initial density of 3×10^4 per well, and with 1 ml of 2% FBS-containing MEM medium per well. The cells were incubated in an incubator (37° C., 5% CO2) overnight, and the medium was removed until the cells adhered to the plate. Then, fresh 2% FBS-containing MEM medium was simultaneously added into each well of the culture plate. The cells were infected with a JEV T1P1 virus strain, wherein the amount of JEV T1P1 used to infect BHK-21 cells was a multiplicity of infection (M.O.I.)=0.1, and the amount of JEV T1P1 used to infect TE671 cells was M.O.I.=0.05. Different concentrations of compound 1 (final concentrations were 0, 2.5, 25 and 125 μM, respectively) were added into different wells. The culture plate was placed into an incubator (37° C., 5% CO2) and maintained therein. […]
(§2) BHK-21 cells were cultured in a 6-well culture plate at an initial density of 3×10^5 per well with 2 ml of 2% FBS-containing MEM medium per well. […] The cells were washed with clear water, and then the viral plaques were counted to calculate the virus titer.

The test system of data set [2] is EV71. The data set can be described thus: Enterovirus infection-induced cytopathic effect / cell survival in RD cells with interferon. To be noted: for Cell survival rate: 36 hours. The data set is classed as cell-based, enterovirus type 71. As for the experimental part:
The RD cells were cultured in a 24-well culture plate at an initial density of 3×10^4 per well with 1 ml of 2% FBS-containing MEM medium per well. The cells were incubated in an incubator (37° C., 5% CO2) overnight. The medium was removed until the cells adhered to the plate. 1 ml of fresh 2% FBS-containing MEM medium was simultaneously added into each well. The RD cells were infected with an EV71 virus strain (M.O.I.=0.1). […] The RD cells were incubated in an incubator (37° C., 5% CO2) for 36 hours, and then their morphology was observed by photography. In addition, 200 μl of culture medium supernatant was collected from each well and stored at −80° C. for conducting the viral plaque test of Example 12.
(In general: Damage to the host cells serves as the signal in cytopathic effect assays.)

In data set [3] the test system is EV71. The data set can be described thus: Enterovirus infection-induced cytopathic effect in RD cells. The data set is classed as cell-based, enterovirus type 71. The following applies: infected 36 hours, M.O.I.=0.1, compound 125 μM. The method, then:
RD cells were cultured in a 24-well culture plate at an initial density of 3×10^4 per well with 1 ml of 2% FBS-containing MEM medium per well. The cells were incubated in an incubator (37° C., 5% CO2) overnight. The medium was removed, and then 1 ml of fresh 2% FBS-containing MEM medium was simultaneously added into each well. The RD cells were infected with EV71 virus strain (M.O.I.=0.1). Different concentrations of compound 1 (final concentrations were 0, 2.5, 25 and 125 μM) were added into different wells. The RD cells were incubated in an incubator (37° C., 5% CO2) for 36 hours, and then their morphology was observed by photography.

Data set [4] deals with JEV T1P1. The experiment in a line: Cytopathic effect test, JEV T1P1-infected TE671 cells. The class given is cell-based, Japanese encephalitis virus. The method, then: (§3) BHK-21 cells and/or TE671cells were separately cultured in a 24-well culture plate, with an initial density of 3×10^4 per well, and with 1 ml of 2% FBS-containing MEM medium per well. The cells were incubated in an incubator (37° C., 5% CO2) overnight, and the medium was removed until the cells adhered to the plate. Then, fresh 2% FBS-containing MEM medium was simultaneously added into each well of the culture plate. The cells were infected with a JEV T1P1 virus strain, wherein the amount of JEV T1P1 used to infect BHK-21 cells was a multiplicity of infection (M.O.I.)=0.1, and the amount of JEV T1P1 used to infect TE671 cells was M.O.I.=0.05. Different concentrations of compound 1 (final concentrations were 0, 2.5, 25 and 125 μM, respectively) were added into different wells. The culture plate was placed into an incubator (37° C., 5% CO2) and maintained therein.
When BHK-21 cells were infected with JEV T1P1 virus strain for 48 and 72 hours as indicated in the above experiment (1), the cytopathic effect was observed by photography, while the cytopathic effect of TE671 cells was observed by photography when TE671 cells were infected with the JEV T1P1 virus strain for 36 and 48 hours. In addition, 200 μl culture medium supernatant of both cells was collected from each time point (i.e., 48 and 72 hours), thereby, providing the use for a viral plaque test in Example 4.

Data set [5] has as its system JEV T1P1. The experiment in a line: Viral plaque test, JEV T1P1 replication in TE671 cells. The class given is cell-based, Japanese encephalitis virus. To be noted: treated for 36 or 48 hours. As for the experimental part: as §1, §2
Another data set relates to DEN2. The experiment in a line: Dengue virus infection-induced cytopathic effect in BHK-21 cells. The class given is cell-based, dengue virus type 2. To be noted: infected 72 hours, M.O.I.=0.1, compound 25 μM. As for the experimental part: BHK-21 cells were cultured in a 24-well culture plate at an initial density of 3×10^4 per well with 1 ml of 2% FBS-containing MEM medium per well. The cells were incubated in an incubator (37° C., 5% CO2) overnight, and the medium was removed until the cells adhered to the plate. Then, 1 ml of fresh 2% FBS-containing MEM medium was simultaneously added into each well of the culture plate; the cells were infected with the DEN2 virus strain (M.O.I.=0.1); different concentrations of compound 1 (the final concentrations were 0, 2.5 and 25 μM, respectively) were added into different wells. BHK-21 cells were incubated in an incubator (37° C., 5% CO2) for 72 hours, and then their morphology was observed by photography.

Data set [6] has as its system JEV T1P1. The experiment in a line: Apoptosis test (Annexin V/PI flow cytometry), JEV T1P1-infected BHK-21 cells. The class given is cell-based, Japanese encephalitis virus. To be noted: JEV T1P1 infection 36 hours; infected without compound 59.05%. The method, then:
as §3
BHK-21 cells and TE 671 cells were washed with PBS after being infected with the JEV T1P1 virus strain for 36 hours in the above experiment (1). Then, PBS was removed. Trypsin-EDTA (150 μl) was added into each well. The cells were incubated in an incubator at 37° C. for 3 minutes. Then, 1 ml MEM medium was added into each well to neutralize EDTA. […] The cells were maintained in the dark for 5 to 10 minutes, and then analyzed by flow cytomerty.

In the case of `CCOC(=O)C1=C(Nc2cc(C)cc(C)c2)OCC1=O` [Compound 1, ethyl 2-(3′,5′-dimethylanilino)-4-oxo-4,5-dihydrofuran-3-carboxylate], the “replication of JEV T1P1 (virus titer)” value in the data set on JEV T1P1 [1] and in the data set with JEV T1P1 [5] was “significantly decreased” in each case. Also, the Cell survival rate in the data set with EV71 [2] (EV71 M.O.I.=0.1, IFN-β 100 unit/ml + Compound 1 2.5 μM) worked out at 46.9%; in the data set on EV71 [2] (EV71 M.O.I.=0.1, IFN-β 100 unit/ml + Compound 1 25 μM) it was 55.86%; with EV71 [2] (EV71 M.O.I.=0.1, IFN-β 100 unit/ml + Compound 1 125 μM), 83.3%; with EV71 [2] (no EV71, no IFN-β, Compound 1 125 μM), 86.85%. Besides, the EV71-induced cytopathic effect entry is “effectively inhibited” in the data set with EV71 [2] (infected 36 hours, combination of compound 1 and 100 units/ml of IFN-β); “effectively inhibited” in the data set with EV71 [3]. Besides, the “JEV T1P1-induced cytopathic effect” value with JEV T1P1 [4] (infected 36 hours, M.O.I.=0.05, compound 25 μM simultaneously) is on record as “inhibited”; in the data set with JEV T1P1 [4] (infected 48 hours, M.O.I.=0.05, compound 25 μM), “inhibited”. In addition, in the data set on DEN2, the DEN2-induced cytopathic effect result is recorded as “effectively inhibited”. The “ratio of BHK-21 cells getting into late apoptosis” value with JEV T1P1 [6] is “reduced by compound 1 in a concentration dependent manner”.
